US20220370416A1, “COMPOUNDS AND METHODS FOR TARGETED DEGRADATION OF KRAS” (Arvinas Operations, Inc., priority 2020, published 2022)

How the values were obtained:
HiBit-KRAS^G12C [1] = target: T1, HiBit-KRAS^G12C (Homo sapiens, UniProt P01116, G12C); assay: HiBit degradation assay in SW1573 HiBit-KRas^G12C cells; assay type: cell-based; design: expressed in transfected cells; host or cells: SW1573 (clone E6), modified pcDNA3.1 vector, TK promoter; settings: 0.5% DMSO, 24 hours; for DC50: read-out: KRas^G12C-HiBiT (SW1573; 0.5% DMSO) IC50***
Summary of the method: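 SW1573 cells stably expressing N-terminally HiBit-tagged KRAS G12C, under the TK promoter, were treated 24 h at 37 °C with 10 μM to 20 nM compound in 0.1% or 0.5% DMSO. Residual HiBit luminescence normalised to DMSO and fitted with a 4-parameter model for DC50 and Dmax. Points with ≥50% viability loss (alamar blue) excluded.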

HiBit-KRAS^G12C [2] = target: T1, HiBit-KRAS^G12C; assay: HiBit degradation assay in MiaPaCa-2 HiBit-KRas^G12C cells; assay type: cell-based; settings: 0.5% DMSO, 24 hours; for Dmax: maximum degradation; for DC50: read-out: KRas^G12C-HiBiT (MiaPaCa; 0.5% DMSO) IC50
Summary of the method: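 MiaPaCa-2 cells with CRISPR N-terminal HiBit knock-in on one endogenous KRAS^G12C allele, treated 24 hours at 37° C with compound titrated 10 μM to 20 nM (0.1% or 0.5% DMSO). Lytic HiBit luminescence normalized to DMSO, 4-parameter fit giving DC50 and Dmax; points cytotoxic to […] cells by alamar blue excluded.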

[3] = SW1573, read-out: KRas^G12C-HiBiT (SW1573; 0.5% DMSO) Dmax**, SW1573 HiBit-KRas^G12C
[4] = MIA PaCa-2, read-out: KRas^G12C-HiBiT (MiaPaCa; 0.5% DMSO) DMax, MiaPaCa-2 HiBit-KRas^G12C cells
[5] = MiaPaCa-2 HiBit-KRas^G12C cells
[6] = SW1573, SW1573 HiBit-KRas^G12C, read-out: KRas^G12C-HiBiT (SW1573; 0.5% DMSO) Dmax**
[7] = MIA PaCa-2, MiaPaCa-2 HiBit-KRas^G12C cells, read-out: KRas^G12C-HiBiT (MiaPaCa; 0.5% DMSO) DMax

T1 sequence (P01116 1-186 isoform P01116-2 G12C limits assumed): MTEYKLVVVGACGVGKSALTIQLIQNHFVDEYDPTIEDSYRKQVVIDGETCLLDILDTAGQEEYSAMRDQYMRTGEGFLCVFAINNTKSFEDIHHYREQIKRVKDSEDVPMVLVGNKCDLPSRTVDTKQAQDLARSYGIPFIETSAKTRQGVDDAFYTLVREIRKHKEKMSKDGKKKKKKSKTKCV

| SMILES | DC50 (HiBit-KRAS^G12C [1]; SW1573 HiBit-KRas^G12C) | DC50 (HiBit-KRAS^G12C [2]; [5]) | Dmax (HiBit-KRAS^G12C [1]; [6]) | Dmax (HiBit-KRAS^G12C [2]; [7]) | Dmax (HiBit-KRAS^G12C [1]; [3]) | Dmax (HiBit-KRAS^G12C [2]; [4]) |
| --- | --- | --- | --- | --- | --- | --- |
| C=CC(=O)N1CCN(c2nc(OCCN3CCC4(CC3)CN(CC(=O)N[C@H](C(=O)N3C[C@H](O)C[C@H]3C(=O)N[C@@H](C)c3ccc(-c5scnc5C)cc3)C(C)(C)C)C4)nc3c(F)c(-c4cc(O)cc5ccccc45)c(Cl)cc23)C[C@@H]1CC#N [Compound 145, (2S,4R)-1-[(2S)-2-(2-{7-[2-({6-chloro-4-[(3S)-3-(cyanomethyl)-4-(prop-2-enoyl)piperazin-1-yl)-8-fluoro-7-(3-hydroxynaphthalen-1-yl)quinazolin-2-yl}oxy)ethyl]-2,7-diazaspiro[3.5]nonan-2-yl}acetamido)-3,3-dimethylbutanoyl]-4-hydroxy-N-[(1S)-1-[4-(4-methyl-1,3-thiazol-5-yl)phenyl]ethyl]pyrrolidine-2-carboxamide] | 100 to 1000 nM | 100 to 1000 nM |  |  | > 70% | 35 to 70% |
| C=CC(=O)N1CCN(c2nc(OCCN3CCC(CN(C)CC(=O)N[C@H](C(=O)N4C[C@H](O)C[C@H]4C(=O)N[C@@H](C)c4ccc(-c5scnc5C)cc4)C(C)(C)C)CC3)nc3c(F)c(-c4cc(O)cc5ccccc45)c(Cl)cc23)C[C@@H]1CC#N [Compound 148, (2S,4R)-1-[(2S)-2-{2-[({1-[2-({6-chloro-4-[(3S)-3-(cyanomethyl)-4-(prop-2-enoyl)piperazin-1-yl]-8-fluoro-7-(3-hydroxynaphthalen-1-yl)quinazolin-2-yl}oxy)ethyl]piperidin-4-yl}methyl)(methyl)amino]acetamido}-3,3-dimethylbutanoyl]-4-hydroxy-N-[(1S)-1-[4-(4-methyl-1,3-thiazol-5-yl)phenyl]ethyl]pyrrolidine-2-carboxamide] | 100 to 1000 nM | 100 to 1000 nM |  |  | 35 to 70% | 35 to 70% |
| C=CC(=O)N1CCN(c2nc(OCCN3CCC(C)(COCC(=O)N[C@H](C(=O)N4C[C@H](O)C[C@H]4C(=O)N[C@@H](C)c4ccc(-c5scnc5C)cc4)C(C)(C)C)CC3)nc3c(F)c(-c4cc(O)cc5ccccc45)c(Cl)cc23)C[C@@H]1CC#N [Compound 149, (2S,4R)-1-[(2S)-2-[2-({1-[2-({6-chloro-4-[(3S)-3-(cyanomethyl)-4-(prop-2-enoyl)piperazin-1-yl]-8-fluoro-7-(3-hydroxynaphthalen-1-yl)quinazolin-2-yl}oxy)ethyl]-4-methylpiperidin-4-yl}methoxy)acetamido]-3,3-dimethylbutanoyl]-4-hydroxy-N-[(1S)-1-[4-(4-methyl-1,3-thiazol-5-yl)phenyl]ethyl]pyrrolidine-2-carboxamide] | 100 to 1000 nM | 100 to 1000 nM | > 70% | > 70% |  |  |
| C=CC(=O)N1CCN(c2nc(OCCN3CCC(F)(COCC(=O)N[C@H](C(=O)N4C[C@H](O)C[C@H]4C(=O)N[C@@H](C)c4ccc(-c5scnc5C)cc4)C(C)(C)C)CC3)nc3c(F)c(-c4cc(O)cc5ccccc45)c(Cl)cc23)C[C@@H]1CC#N [Compound 150, (2S,4R)-1-[(2S)-2-[2-({1-[2-({6-chloro-4-[(3S)-3-(cyanomethyl)-4-(prop-2-enoyl)piperazin-1-yl]-8-fluoro-7-(3-hydroxynaphthalen-1-yl)quinazolin-2-yl}oxy)ethyl]-4-fluoropiperidin-4-yl}methoxy)acctamido]-3,3-dimethylbutanoyl]-4-hydroxy-N-[(1S)-1-[4-(4-methyl-1,3-thiazol-5-yl)phenyl]ethyl]pyrrolidine-2-carboxamide] | 100 to 1000 nM | > 1000 nM | > 70% | > 70% |  |  |
| C=C(F)C(=O)N1CCN(c2nc(O[C@H](C)CN3CCC(COc4cc([C@H](C(=O)N5C[C@H](O)C[C@H]5C(=O)N[C@@H](C)c5ccc(-c6scnc6C)cc5)C(C)C)on4)CC3)nc3c(F)c(-c4cc(O)cc5ccccc45)c(Cl)cc23)C[C@@H]1CC#N [Compound 155, (2S,4R)-1-[(2R)-2-[3-({1-[(2R)-2-({6-chloro-4-[(3S)-3-(cyanomethyl)-4-(2-fluoroprop-2-enoyl)piperazin-1-yl]-8-fluoro-7-(3-hydroxynaphthalen-1-yl)quinazolin-2-yl}oxy)propyl]piperidin-4-yl}methoxy)-1,2-oxazol-5-yl]-3-methylbutanoyl]-4-hydroxy-N-[(1S)-1-[4-(4-methyl-1,3-thiazol-5-yl)phenyl]ethyl]pyrrolidine-2-carboxamide] | 100 to 1000 nM | 100 to 1000 nM | < 35% | < 35% |  |  |

Further lines, with some results ahead:

| DC50 (HiBit-KRAS^G12C [1]; SW1573 HiBit-KRas^G12C) | DC50 (HiBit-KRAS^G12C [2]; [5]) | Dmax (HiBit-KRAS^G12C [1]; [6]) | Dmax (HiBit-KRAS^G12C [2]; [7]) | SMILES | Dmax (HiBit-KRAS^G12C [1]; [3]) | Dmax (HiBit-KRAS^G12C [2]; [4]) |
| --- | --- | --- | --- | --- | --- | --- |
| 100 to 1000 nM | 100 to 1000 nM | > 70% | 35 to 70% | C=CC(=O)N1CCN(c2nc(O[C@H](C)CN3CCC(COCC(=O)N[C@H](C(=O)N4C[C@H](O)C[C@H]4C(=O)N[C@@H](C)c4ccc(-c5scnc5C)cc4)C(C)(C)C)CC3)nc3c(F)c(-c4cc(O)cc5ccccc45)c(Cl)cc23)C[C@@H]1CC#N [Compound 152, (2S,4R)-1-[(2S)-2-[2-({1-[(2R)-2-({6-chloro-4-[(3S)-3-(cyanomethyl)-4-(prop-2-enoyl)piperazin-1-yl]-8-fluoro-7-(3-hydroxynaphthalen-1-yl)quinazolin-2-yl}oxy)propyl]piperidin-4-yl}methoxy)acetamido]-3,3-dimethylbutanoyl]-4-hydroxy-N-[(1S)-1-[4-(4-methyl-1,3-thiazol-5-yl)phenyl]ethyl]pyrrolidine-2-carboxamide] |  |  |
| 100 to 1000 nM | 100 to 1000 nM | > 70% | > 70% | C=CC(=O)N1CCN(c2nc(O[C@H](C)CN3CCC(COc4cc([C@H](C(=O)N5C[C@H](O)C[C@H]5C(=O)N[C@@H](C)c5ccc(-c6scnc6C)cc5)C(C)C)on4)CC3)nc3c(F)c(-c4cc(O)cc5ccccc45)c(Cl)cc23)C[C@@H]1CC#N [Compound 153, (2S,4R)-1-[(2R)-2-[3-({1-[(2R)-2-({6-chloro-4-[(3S)-3-(cyanomethyl)-4-(prop-2-enoyl)piperazin-1-yl]-8-fluoro-7-(3-hydroxynaphthalen-1-yl)quinazolin-2-yl}oxy)propyl]piperidin-4-yl}methoxy)-1,2-oxazol-5-yl]-3-methylbutanoyl]-4-hydroxy-N-[(1S)-1-[4-(4-methyl-1,3-thiazol-5-yl)phenyl]ethyl]pyrrolidine-2-carboxamide] |  |  |
| < 100 nM | 100 to 1000 nM |  |  | C=C(F)C(=O)N1CCN(c2nc(OCCN3CCC(COc4cc([C@H](C(=O)N5C[C@H](O)C[C@H]5C(=O)N[C@@H](C)c5ccc(-c6ccnn6C)cc5)C(C)C)on4)CC3)nc3c(F)c(-c4cc(O)cc5ccccc45)c(Cl)cc23)C[C@@H]1CC#N [Compound 156, (2S,4R)-1-[(2R)-2-[3-({1-[2-({6-chloro-4-[(3S)-3-(cyanomethyl)-4-(2-fluoroprop-2-enoyl)piperazin-1-yl]-8-fluoro-7-(3-hydroxynaphthalen-1-yl)quinazolin-2-yl}oxy)ethyl]piperidin-4-yl}methoxy)-1,2-oxazol-5-yl]-3-methylbutanoyl]-4-hydroxy-N-[(1S)-1-[4-(1-methyl-1H-pyrazol-5-yl)phenyl]ethyl]pyrrolidine-2-carboxamide] |  |  |
| < 100 nM | 100 to 1000 nM |  |  | C=CC(=O)N1CCN(c2nc(OCCN3CCC(COc4cc([C@H](C(=O)N5C[C@H](O)C[C@H]5C(=O)N[C@@H](C)c5ccc(-c6ccnn6C)cc5)C(C)C)on4)CC3)nc3c(F)c(-c4cc(O)cc5ccccc45)c(Cl)cc23)C[C@@H]1CC#N [Compound 157, (2S,4R)-1-[(2R)-2-[3-({1-[2-({6-chloro-4-[(3S)-3-(cyanomethyl)-4-(prop-2-enoyl)piperazin-1-yl]-8-fluoro-7-(3-hydroxynaphthalen-1-yl)quinazolin-2-yl}oxy)ethyl]piperidin-4-yl}methoxy)-1,2-oxazol-5-yl]-3-methylbutanoyl]-4-hydroxy-N-[(1S)-1-[4-(1-methyl-1H-pyrazol-5-yl)phenyl]ethyl]pyrrolidine-2-carboxamide] |  |  |
| > 1000 nM | > 1000 nM |  |  | C=C(F)C(=O)N1CCN(c2nc(OCCN3CCC(COc4cc([C@@H](C(=O)N5C[C@H](O)C[C@H]5C(=O)N[C@@H](C)c5ccc(-c6ccnn6C)cc5)C(C)C)on4)CC3)nc3c(F)c(-c4cc(O)cc5ccccc45)c(Cl)cc23)C[C@@H]1CC#N [Compound 158, (2S,4R)-1-[(2S)-2-[3-({1-[2-({6-chloro-4-[(3S)-3-(cyanomethyl)-4-(2-fluoroprop-2-enoyl)piperazin-1-yl]-8-fluoro-7-(3-hydroxynaphthalen-1-yl)quinazolin-2-yl}oxy)ethyl]piperidin-4-yl}methoxy)-1,2-oxazol-5-yl]-3-methylbutanoyl]-4-hydroxy-N-[(1S)-1-[4-(1-methyl-1H-pyrazol-5-yl)phenyl]ethyl]pyrrolidine-2-carboxamide] |  |  |
